Experimental data published in paper PMC10418599, “Quercetins, Chlorogenic Acids and Their Colon Metabolites Inhibit Colon Cancer Cell Proliferation at Physiologically Relevant Concentrations” (International Journal of Molecular Sciences, 2023).

Key:
[1] = cited from earlier work; for Maximum value in human fecal water: after raspberry supplementation, ref 49 (Gill et al.)
[2] = tested on: Caco-2 cell line; assay: Anti-proliferative assay (MTS cell proliferation assay); format: cell-based, Human; settings: for IC50: maximum tested concentration 200 μmol/L
Procedure: (§1) Human colon cancer Caco-2 and SW480 cell lines were cultured and grown as previously reported. […] Incubation was carried out for 24, 48 and 72 h. Data were compared with a control solution containing 0.5% DMSO in cell medium and representing 100% proliferation. In addition, six different mixes were prepared to simulate the simultaneous presence of parent phenolic compounds and metabolites by mimicking the possible human inter-individual variability in colon metabolism of phenolic compounds. Two sets of mixes were prepared to consider the colon metabolism of quercetins and chlorogenic acids. […] For each set of mixtures (QUE and CGA mixtures), three different mixes were formulated. One set of mixes mimicked the low-producers metabotype and contained 90% parent compounds and 10% metabolites (mixes QUE-LP and CGA-LP). Another set of mixes was prepared to simulate the high-producers metabotype and contained 10% parent compounds and 90% metabolites (mixes QUE-HP and CGA-HP). Finally, a third set of mixes was prepared with equimolar amounts of all the compounds (mixes QUE-EQ and CGA-EQ). […] Cell proliferation was assessed by the MTS assay as previously described. […] The IC50 values were calculated through non-linear regression analysis by plotting the base-10 logarithm of the phenolic compound concentration vs. the percentage of inhibition.

[3] = tested on: SW480 cell line; assay: as above; format: cell-based, Human; settings: for IC50: maximum tested concentration 200 μmol/L
Procedure: as §1

[4] = tested on: SW480 cell line; assay: Cell metabolism of phenolic compounds (UHPLC-HR-MS analysis of cell media); format: in vitro ADME, Human; settings: for Concentration of substrate in cell medium: initial 50 μmol/L
Procedure: (§2) To analyze the metabolism of phenolic compounds by Caco-2 and SW480 cells, the cell culture media were withdrawn after 0, 24, 48 and 72 h of incubation. Phenolic compounds were extracted from the culture media by following the procedure reported in Sala et al.. Briefly, 100 μL of cold methanol was mixed with 100 μL of cell media and vortexed for 1 min. The mixture was then centrifuged at 10,000× g (4 °C, 5 min) and the supernatant was injected, after appropriate dilution, in an ultra-high-performance liquid chromatography high-resolution mass spectrometry system (UHPLC-HR-MS).
(§3) The HR-MS system consisted of a UHPLC Ultimate 3000 separation module, equipped with a C18 column (Acquity UPLC HSS C18 reversed phase, 2.1 × 100 mm, 1.8 μm particle size, Waters, Milan, Italy) and coupled with a Q Exactive Hybrid Quadrupole-Orbitrap Mass Spectrometer (Thermo Scientific, San Jose, CA, USA). Mobile phases consisted of a mixture of water containing formic acid (0.1%) (mobile phase A) and acetonitrile containing formic acid (0.1%) (mobile phase B). The gradient began at 1% B, reaching 40% B over 20 min. To wash the column, the mobile phase B concentration was raised to 99% over 6 min and kept at 99% for 3 min before returning to the initial conditions. The MS and MS/MS conditions are fully described in Martini et al..
(§4) Quantification was carried out by building external calibration curves with the available standard compounds.

[5] = parameters: method as in PMID 33350133, doi:10.1002/fft2.50; settings: of the ingested dose; cited from earlier work
[6] = tested on: Caco-2 cell line; assay: in vitro; format: in vitro ADME; settings: human; for Concentration of substrate in cell medium: 50 μmol/L
Procedure: as §2, §3, §4

[7] = tested on: SW480 cells; assay: Cell cycle analysis by flow cytometry; format: cell-based, Human; settings: 72 h, concentration equal to the IC50 value, vs control
Procedure: Cell cycle analysis was carried out in both Caco-2 and SW480 cell lines as previously reported by Nicoletti et al.. Cells were seeded in 6-well plates at a density of 4000 and 8000 cells/cm^2 for Caco-2 and SW480, respectively.
After 72 h of incubation, the cells were washed with PBS, detached from the 6-well plates with 500 μL of trypsin and resuspended in 1000 μL of medium. Subsequently, they were centrifuged at 3500 rpm for 5 min. After removing the supernatant, the pellet was resuspended with 400 μL of Nicoletti’s solution (sodium citrate 0.1%, Triton X-100 0.1% and 20 μg/mL propidium iodide). After 15 min of incubation at 4 °C in the dark, cell cycle analysis was performed with an Epics XL MCL flow cytometer (Beckman Coulter, Brea, CA, USA).
The data were compared with a control solution containing 0.5% DMSO in the cell medium.

[8] = Cell metabolism of phenolic compounds (UHPLC-HR-MS analysis of cell media); format: in vitro ADME, Human; settings: human, SW480 cells; SW480, 72 h
Procedure: as §2, §3, §4

[9] = in vitro; format: in vitro ADME; settings: human
Procedure: as §2, §3, §4

[10] = Homo sapiens, Caco-2, 24 h of incubation
[11] = Homo sapiens, Caco-2, 48 h of incubation
[12] = Homo sapiens, Caco-2, 72 h of incubation
[13] = Homo sapiens, SW480, 48 h of incubation
[14] = Homo sapiens, SW480, 72 h of incubation
[15] = no dietary restriction or supplementation, ref 47 (Jenner et al.)

IC50 [2, 11] | IC50 [2, 12] | IC50 [3, 13] | IC50 [3, 14] | Concentration of substrate in cell medium ([4]; SW480, 24 h) | Concentration of substrate in cell medium ([4]; SW480, 48 h) | Concentration of substrate in cell medium ([4]; SW480, 72 h) | IC50 ([3]; SW480, 48 h of incubation) | IC50 ([3]; SW480, 72 h of incubation) | Concentration of substrate in cell medium ([6]; 24 h) | Concentration of substrate in cell medium ([6]; 48 h) | Concentration of substrate in cell medium ([6]; 72 h) | SMILES | Maximum value in human fecal water [1] | further results
> 200 µM | 116 ± 4.9 µM | 89.2 ± 3.1 µM | 58.2 ± 2.7 µM | 47.39 ± 1.22 µM | 40.37 ± 1.20 µM | 14.83 ± 0.84 µM |  |  | 0.61 ± 0.01 µM | 0.29 ± 0.01 µM | 0.52 ± 0.02 µM | O=c1c(O)c(-c2ccc(O)c(O)c2)oc2cc(O)cc(O)c12 [Quercetin, quercetin] |  | Absorption in the small intestine [5]: about 20%; Decrease in IC50 value from 48 to 72 h ([3]; SW480): 1.5 fold; Concentration of newly formed metabolite ([4]; SW480, 24 h, substrate Quercetin-4′-O-glucoside 50 μmol/L): 52.70 ± 2.24 µM; Concentration of newly formed metabolite ([4]; SW480, 48 h, substrate Quercetin-3-O-glucoside-4′-O-glucoside 50 μmol/L): 0.04 ± 0.00 µM; Concentration of newly formed metabolite ([4]; SW480, 48 h, substrate Quercetin-4′-O-glucoside 50 μmol/L): 36.89 ± 0.52 µM; Concentration of newly formed metabolite ([4]; SW480, 72 h, substrate Quercetin-3-O-glucoside-4′-O-glucoside 50 μmol/L): 0.07 ± 0.00 µM; Concentration of newly formed metabolite ([4]; SW480, 72 h, substrate Quercetin-4′-O-glucoside 50 μmol/L): 12.78 ± 0.41 µM; Decrease in cell medium concentration ([6]; 24 h): 99.5%; Increase in the number of SW480 cells in the S phase [7]: 3.1 times
 |  |  |  | 2.98 ± 0.07 µM | 0.07 ± 0.00 µM | 0.01 ± 0.00 µM | 144 ± 6.6 µM | 102 ± 5.3 µM |  |  |  | O=c1c(O)c(-c2ccc(O[C@@H]3O[C@H](CO)[C@@H](O)[C@H](O)[C@H]3O)c(O)c2)oc2cc(O)cc(O)c12 [Quercetin-4′-O-glucoside, quercetin-4′-O-glucoside] |  | IC50 ([2]; Caco-2, 48 h of incubation): > 200 µM; IC50 ([2]; Caco-2, 72 h of incubation): > 200 µM; Decrease in IC50 value from 48 to 72 h ([3]; SW480): 1.4 fold; Increase in the number of SW480 cells in the S phase [7]: 2.5 times
 |  |  |  |  |  |  | > 200 µM | > 200 µM |  |  |  | O=C(/C=C/c1ccc(O)c(O)c1)O[C@@H]1C[C@](O)(C(=O)O)C[C@@H](O)[C@H]1O [3-O-Caffeoylquinic acid, 3-O-caffeoylquinic acid] |  | Percentage of inhibition of SW480 growth ([3]; 100 μmol/L, 72 h): 29.6%; Concentration of substrate in cell medium ([4]; SW480, 24 h, listed as 3-O-Caffeoylquinic acid trans): 23.34 ± 0.07 µM; Concentration of newly formed metabolite ([4]; SW480, 24 h, substrate 3,5-di-O-Caffeoylquinic acid 50 μmol/L, listed as 3-O-Caffeoylquinic acid trans): 0.09 ± 0.01 µM; Concentration of substrate in cell medium ([4]; SW480, 48 h, listed as 3-O-Caffeoylquinic acid trans): 19.54 ± 0.07 µM; Concentration of newly formed metabolite ([4]; SW480, 48 h, substrate 3,5-di-O-Caffeoylquinic acid 50 μmol/L, listed as 3-O-Caffeoylquinic acid trans): 0.13 ± 0.01 µM; Concentration of newly formed metabolite ([4]; SW480, 48 h, substrate 5-O-Caffeoylquinic acid trans 50 μmol/L, listed as 3-O-Caffeoylquinic acid trans): 5.14 ± 0.07 µM; Concentration of substrate in cell medium ([4]; SW480, 72 h, listed as 3-O-Caffeoylquinic acid trans): 19.83 ± 0.05 µM; Concentration of newly formed metabolite ([4]; SW480, 72 h, substrate 5-O-Caffeoylquinic acid trans 50 μmol/L, listed as 3-O-Caffeoylquinic acid trans): 5.55 ± 0.09 µM
> 200 µM | > 200 µM |  | > 200 µM | 52.74 ± 0.44 µM | 50.70 ± 0.11 µM | 49.95 ± 0.37 µM |  |  | 45.51 ± 0.41 µM | 46.27 ± 0.58 µM | 46.28 ± 0.76 µM | O=C(O)CCc1cccc(O)c1 [3-(3′-Hydroxyphenyl)propanoic acid, 3-(3′-hydroxyphenyl)propanoic acid] | 1810 µmol/L | Concentration in human fecal water ([1]; no dietary restriction or supplementation, ref 46 (Karlsson et al.)): 61 ± 34 µM; Mean concentration in human fecal water [1, 15]: 68 ± 93 µM; Range of concentration in human fecal water [1, 15]: 0.72 to 209 µmol/L; IC50 [2, 10]: > 200 µM; inhibition at 100 µM ([3]; Homo sapiens, SW480, 100 μmol/L, 72 h, read-out: Percentage of inhibition of SW480 growth): 13.3%; recovery at 72 h [8]: > 80%; recovery at 72 h [9]: > 80%

More lines, now with the values behind:

SMILES | IC50 [2, 11] | IC50 [2, 12] | IC50 [3, 13] | IC50 [3, 14] | Concentration of substrate in cell medium ([4]; SW480, 24 h) | Concentration of substrate in cell medium ([4]; SW480, 48 h) | Concentration of substrate in cell medium ([4]; SW480, 72 h) | IC50 ([3]; SW480, 48 h of incubation) | IC50 ([3]; SW480, 72 h of incubation) | Concentration of substrate in cell medium ([6]; 24 h) | Concentration of substrate in cell medium ([6]; 48 h) | Concentration of substrate in cell medium ([6]; 72 h) | Maximum value in human fecal water [1] | further results
O=C(O)Cc1ccc(O)c(O)c1 [3-(3′,4′-Dihydroxyphenyl)acetic acid, 3-(3′,4′-dihydroxyphenyl)acetic acid] | 14.7 ± 0.8 µM | 3 ± 0.1 µM | > 200 µM | 92.2 ± 6.9 µM | 21.62 ± 0.48 µM | 15.84 ± 0.09 µM | 10.30 ± 0.36 µM |  |  |  |  |  | 442 µmol/L | IC50 [2, 10]: 79.5 ± 1.4 µM
O=C(/C=C/c1ccc(O)c(O)c1)OC1CC(O)(C(=O)O)CC(OC(=O)/C=C/c2ccc(O)c(O)c2)C1O (stereo not drawn) [3,5-di-O-Caffeoylquinic acid, 3,5-di-O-caffeoylquinic acid] |  |  |  |  | 7.13 ± 0.13 µM | 5.41 ± 0.07 µM | 6.17 ± 0.05 µM | > 200 µM | > 200 µM |  |  |  |  | Inhibition of Caco-2 growth ([2]; 100 μmol/L, 72 h): almost complete inhibition; IC50 ([2]; Caco-2, 24 h of incubation): > 200 µM; IC50 ([2]; Caco-2, 48 h of incubation): 27.5 ± 1 µM; IC50 ([2]; Caco-2, 72 h of incubation): 8.8 ± 0.2 µM; Percentage of inhibition of SW480 growth ([3]; 100 μmol/L, 72 h): 10.9%
O=C(O)Cc1cccc(O)c1 [3-(3′-Hydroxyphenyl)acetic acid, 3-(3′-hydroxyphenyl)acetic acid] | > 200 µM | > 200 µM | > 200 µM | 99.6 ± 4.8 µM | 42.23 ± 0.55 µM | 42.81 ± 0.10 µM | 39.28 ± 0.85 µM |  |  | 48.83 ± 0.85 µM | 47.02 ± 0.39 µM | 43.17 ± 0.06 µM | 327 µmol/L | recovery at 72 h [8]: > 80%; recovery at 72 h [9]: > 80%
